Laboratory results: patent publication US20090280130A1 (priority 2006, published 2009)
“And” between values parts separate entries of the source, which are not always exact repeats. Equal values may be shown once. “Also recorded” adds a separate entry of the source.

Tests used:
zebrafish embryos [1] = type: in vivo; conditions: n>30
zebrafish embryos [2] = conditions: in vivo
zebrafish embryos [3] = conditions: in vivo; remark: listed apart in the source
[4] = test system: mouse skin microvasculature; design: species or system C3H/HeJ mice; conditions: in vivo
VEGFR2 [5] = target: VEGFR2 (Mus musculus, UniProt P35918); conditions: cited from earlier work
Sequence of VEGFR2 (Mus musculus, UniProt P35918) (P35918 20-1345): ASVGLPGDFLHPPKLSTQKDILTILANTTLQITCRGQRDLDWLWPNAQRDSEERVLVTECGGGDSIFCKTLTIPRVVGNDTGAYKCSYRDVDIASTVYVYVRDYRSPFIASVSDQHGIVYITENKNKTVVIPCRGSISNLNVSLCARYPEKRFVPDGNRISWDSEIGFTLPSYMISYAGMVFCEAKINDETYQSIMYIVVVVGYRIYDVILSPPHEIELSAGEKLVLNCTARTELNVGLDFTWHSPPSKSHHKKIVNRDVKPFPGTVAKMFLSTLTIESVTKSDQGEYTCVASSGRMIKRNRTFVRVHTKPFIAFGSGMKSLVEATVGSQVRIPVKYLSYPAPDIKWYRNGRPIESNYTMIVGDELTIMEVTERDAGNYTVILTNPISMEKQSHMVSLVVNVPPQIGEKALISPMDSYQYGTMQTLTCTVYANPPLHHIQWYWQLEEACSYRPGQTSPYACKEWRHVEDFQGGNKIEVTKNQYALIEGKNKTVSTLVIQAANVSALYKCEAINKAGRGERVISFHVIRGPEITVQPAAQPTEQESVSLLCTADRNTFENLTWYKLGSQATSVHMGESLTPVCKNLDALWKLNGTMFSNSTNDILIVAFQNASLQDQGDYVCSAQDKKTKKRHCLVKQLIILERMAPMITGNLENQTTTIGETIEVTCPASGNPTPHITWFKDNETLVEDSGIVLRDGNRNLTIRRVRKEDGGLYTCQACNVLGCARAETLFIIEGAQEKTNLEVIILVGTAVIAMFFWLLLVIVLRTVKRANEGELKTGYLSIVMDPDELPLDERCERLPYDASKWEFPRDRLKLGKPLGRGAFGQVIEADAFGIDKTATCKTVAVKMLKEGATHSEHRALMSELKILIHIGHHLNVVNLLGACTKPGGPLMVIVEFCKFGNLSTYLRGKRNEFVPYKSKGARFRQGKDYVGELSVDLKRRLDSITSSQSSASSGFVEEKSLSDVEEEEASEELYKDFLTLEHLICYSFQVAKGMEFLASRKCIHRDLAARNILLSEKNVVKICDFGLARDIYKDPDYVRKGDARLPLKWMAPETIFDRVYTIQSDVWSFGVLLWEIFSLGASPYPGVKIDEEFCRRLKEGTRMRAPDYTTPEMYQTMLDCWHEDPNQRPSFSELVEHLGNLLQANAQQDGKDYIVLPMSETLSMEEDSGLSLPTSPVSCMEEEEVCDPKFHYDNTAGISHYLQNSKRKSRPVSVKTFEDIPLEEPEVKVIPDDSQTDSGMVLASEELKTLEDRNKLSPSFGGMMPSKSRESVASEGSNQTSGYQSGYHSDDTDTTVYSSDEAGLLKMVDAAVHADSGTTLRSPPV

zebrafish embryos [6] = type: in vivo; conditions: 5 μM for 6 hours
zebrafish embryos [7] = conditions: in vivo; remark: listed apart in the source
VEGFR2 [8] = target: T1, VEGFR2 (Homo sapiens, UniProt P35968); conditions: cited from earlier work
T1 sequence (P35968 20-1356): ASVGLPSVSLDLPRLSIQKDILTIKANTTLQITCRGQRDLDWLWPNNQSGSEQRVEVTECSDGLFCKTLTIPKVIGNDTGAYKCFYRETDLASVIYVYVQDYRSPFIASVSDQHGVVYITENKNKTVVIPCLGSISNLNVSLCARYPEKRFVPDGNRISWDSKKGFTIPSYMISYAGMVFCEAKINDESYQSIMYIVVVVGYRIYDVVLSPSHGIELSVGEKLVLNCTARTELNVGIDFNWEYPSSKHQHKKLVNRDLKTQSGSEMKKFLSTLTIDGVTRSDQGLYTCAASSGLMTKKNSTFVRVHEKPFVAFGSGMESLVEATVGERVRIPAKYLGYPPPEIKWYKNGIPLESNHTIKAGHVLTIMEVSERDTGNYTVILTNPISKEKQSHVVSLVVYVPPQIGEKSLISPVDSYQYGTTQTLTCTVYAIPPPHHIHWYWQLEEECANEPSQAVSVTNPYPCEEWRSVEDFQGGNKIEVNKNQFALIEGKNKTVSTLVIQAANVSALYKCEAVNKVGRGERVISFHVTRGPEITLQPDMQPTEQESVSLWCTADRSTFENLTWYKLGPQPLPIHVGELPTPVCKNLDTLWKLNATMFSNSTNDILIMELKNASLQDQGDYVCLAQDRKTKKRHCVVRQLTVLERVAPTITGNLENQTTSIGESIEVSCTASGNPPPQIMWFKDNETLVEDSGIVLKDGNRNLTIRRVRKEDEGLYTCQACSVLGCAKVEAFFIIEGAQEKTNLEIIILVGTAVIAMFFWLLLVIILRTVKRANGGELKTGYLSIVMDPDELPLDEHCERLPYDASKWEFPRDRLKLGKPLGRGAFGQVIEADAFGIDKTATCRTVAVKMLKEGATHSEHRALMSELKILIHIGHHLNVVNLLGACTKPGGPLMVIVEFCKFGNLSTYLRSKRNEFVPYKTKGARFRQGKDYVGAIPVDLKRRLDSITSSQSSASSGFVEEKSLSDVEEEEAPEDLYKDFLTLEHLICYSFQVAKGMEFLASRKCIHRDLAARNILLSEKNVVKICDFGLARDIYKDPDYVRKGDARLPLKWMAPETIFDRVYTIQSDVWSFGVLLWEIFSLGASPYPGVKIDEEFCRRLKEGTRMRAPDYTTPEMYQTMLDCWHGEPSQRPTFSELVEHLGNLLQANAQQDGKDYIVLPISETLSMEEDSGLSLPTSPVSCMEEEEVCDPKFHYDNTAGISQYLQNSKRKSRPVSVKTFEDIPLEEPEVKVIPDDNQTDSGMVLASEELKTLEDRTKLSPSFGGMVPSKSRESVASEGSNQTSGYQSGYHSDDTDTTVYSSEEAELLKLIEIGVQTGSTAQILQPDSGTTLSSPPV

VEGFR2 [9] = target: T1, VEGFR2; conditions: cited from earlier work; remark: listed apart in the source
VEGFR1 = VEGFR1 (Homo sapiens, UniProt P17948); conditions: cited from earlier work
Sequence of VEGFR1 (P17948 27-1338): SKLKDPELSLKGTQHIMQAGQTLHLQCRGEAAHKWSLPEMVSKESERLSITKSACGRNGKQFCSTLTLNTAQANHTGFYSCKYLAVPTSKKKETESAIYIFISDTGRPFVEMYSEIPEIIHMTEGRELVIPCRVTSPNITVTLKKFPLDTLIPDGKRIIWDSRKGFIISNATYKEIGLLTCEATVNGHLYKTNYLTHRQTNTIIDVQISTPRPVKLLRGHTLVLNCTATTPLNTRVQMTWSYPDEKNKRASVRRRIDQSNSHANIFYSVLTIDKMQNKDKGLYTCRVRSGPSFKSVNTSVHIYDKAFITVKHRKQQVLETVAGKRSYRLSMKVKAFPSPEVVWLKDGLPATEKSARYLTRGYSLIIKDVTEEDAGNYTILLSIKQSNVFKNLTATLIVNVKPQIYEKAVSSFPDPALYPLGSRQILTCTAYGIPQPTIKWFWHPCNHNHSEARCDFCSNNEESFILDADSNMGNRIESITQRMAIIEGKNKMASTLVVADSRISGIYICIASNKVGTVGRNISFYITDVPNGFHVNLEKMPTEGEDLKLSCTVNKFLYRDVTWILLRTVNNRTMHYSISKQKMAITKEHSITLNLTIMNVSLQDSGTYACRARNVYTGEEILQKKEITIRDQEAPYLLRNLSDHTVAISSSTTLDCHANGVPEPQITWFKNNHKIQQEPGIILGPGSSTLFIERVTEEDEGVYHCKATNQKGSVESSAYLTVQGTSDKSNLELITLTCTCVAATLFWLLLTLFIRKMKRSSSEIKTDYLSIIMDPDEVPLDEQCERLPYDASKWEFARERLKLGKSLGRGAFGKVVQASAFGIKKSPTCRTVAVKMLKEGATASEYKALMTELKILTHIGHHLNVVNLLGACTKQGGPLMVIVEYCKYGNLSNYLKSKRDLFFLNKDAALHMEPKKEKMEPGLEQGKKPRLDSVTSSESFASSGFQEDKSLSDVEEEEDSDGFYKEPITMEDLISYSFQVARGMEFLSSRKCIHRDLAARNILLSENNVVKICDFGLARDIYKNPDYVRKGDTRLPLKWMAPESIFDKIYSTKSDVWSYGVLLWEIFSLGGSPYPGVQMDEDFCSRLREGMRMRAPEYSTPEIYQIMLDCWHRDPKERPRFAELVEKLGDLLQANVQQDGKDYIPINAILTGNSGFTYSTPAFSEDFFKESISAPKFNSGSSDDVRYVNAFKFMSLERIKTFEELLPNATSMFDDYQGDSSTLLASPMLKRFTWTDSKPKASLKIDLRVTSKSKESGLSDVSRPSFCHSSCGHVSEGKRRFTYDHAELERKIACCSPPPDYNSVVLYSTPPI

Molecule	Mild Toxin Phenotype (zebrafish embryos [2])	Severe Toxin Phenotype (zebrafish embryos [2])	Wildtype Appearance (zebrafish embryos [2])	also measured
O=C(NOCC1CC1)c1ccc(F)c(F)c1Nc1ccc(I)cc1Cl [CI-1040]	–	–	–	embryos in which LeTx effects were phenocopied (zebrafish embryos [1]): 100%
CCN(CC)CCNC(=O)c1c(C)[nH]c(/C=C2\C(=O)Nc3ccc(Cl)cc32)c1C [SU11652]	11	10	1	Protection against LeTx effects / phenotypes (in words) (zebrafish embryos [2]): demonstrated protection against LeTx effects; % With Toxin Phen (Mild and Severe) (zebrafish embryos [3]): 80% and 100%; Mild Phen (zebrafish embryos [3]): 7 and 9 and 8; Protection against LeTx effects (in words) (zebrafish embryos [3]): able to protect against LeTx effects; Severe Toxin Phen (zebrafish embryos [3]): 9 and 11 and 12; LeTx induced vascular leakage, Evans Blue Dye (in words) [4]: attenuated LeTx induced vascular leakage significantly; Blocking of VEGFR2 activity in vivo (in words) (VEGFR2 [5]): used successfully to block VEGFR2 activity
Cn1cc(C=C2C(=O)Nc3ccc(S(N)(=O)=O)cc32)c2ccccc21 [Syk Inhibitor, 3-(1-Methyl-1H-indol-3-yl-methylene)-2-oxo-2,3-dihydro-1H-indol-5-sulfonamide]	7	14	1	–
C[C@@H](N)[C@H]1CC[C@H](C(=O)Nc2ccncc2)CC1 [Y-27632]	6	13	1	–
C[C@@H]1C[C@@H]([C@H](O)CC2CC(=O)NC(=O)C2)C(=O)[C@@H](C)C1 [cycloheximide]	–	–	–	Phenocopy of endothelial cell fragmentation in the intersegmental vessels (in words) (zebrafish embryos [6]): phenocopied
AG-1296	3	15	2	–
ZM323881	10	8	4	Protection against LeTx effects / phenotypes (in words) (zebrafish embryos [2]): provided the best protection against the development of LeTx phenotypes; also recorded: demonstrated protection against LeTx effects; Mild Toxin Phen (zebrafish embryos [7]): 12 and 8 and 9 and 13; Proportion of embryos displaying LeTx phenotypes (in words) (zebrafish embryos [7]): reduction in the proportion of embryos displaying LeTx phenotypes is seen in 3 concentrations of the inhibitor; Severe forms of the LeTx phenotype (in words) (zebrafish embryos [7]): dramatic reduction in the severe forms of the LeTx phenotype that occurred in all concentrations used; IC50 (VEGFR2 [8]): < 0.002 µM; Attenuation of toxin effects (in words) (zebrafish embryos [3]): able to attenuate the toxin effects; LeTx induced vascular leakage, Evans Blue Dye (in words) [4]: attenuated LeTx induced vascular leakage significantly; VEGFR2 activation (in words) (VEGFR2 [9]): inhibit VEGFR2 activation; IC50 (VEGFR1): > 50 µM
ZM449829	5	15	1	–
